Source: US5364944A, “Substituted benzoylbenzene-, biphenyl- and 2-oxazole- alkanoic acid compounds” (American Home Products Corporation, priority 1993, dated 1994)
Where a name gives a salt, the structure may show the parent alone. Read-outs that look alike come from different tables or passages of the source.

How the values were obtained:
[1] = test system: fluid and cellular phases of an inflammatory response; assay: Reverse passive Arthus pleurisy assay, pleural inflammation (fluid exudation, cellular influx); type: in vivo, rat (male Lewis)
Experimental: (§1) The compounds of the invention are further tested in the reverse passive Arthus pleurisy assay to evaluate their effectiveness in inflammatory mediator release and/or the fluid and cellular phases of an inflammatory response.
(§2) This assay is carried out as follows:
(§3) A reverse passive Arthus reaction is induced in the pleural cavity of male Lewis rats (150-200 g; fasted overnight prior to use) by the intravenous administration of bovine serum albumin (BSA; 4 mg/0.2 ml) followed 30 minutes later by the injection of rabbit anti-BSA (1 mg/0.2 ml; lyophilized IgG fraction; Organon Teknika, West Chester, Pa.) into the right pleural space under halothane anesthesia. Drugs or vehicle (0.5% Tween-80) control are administered orally in a volume of 1 ml/100 g body weight at 1 hour prior to the anti-BSA. Animals are sacrificed at either the time of peak eicosanoid production (i.e. 5 minutes after anti-BSA for immunoreactive TxB2 10 minutes for immunoreactive LTB4, 20 minutes for immunoreactive LTC4) or at the time of peak neutrophil infiltration (4 hours after anti-BSA) by CO2 inhalation. The pleural cavity is then exposed, the fluid exudate removed by gentle vacuum aspiration and the volume of exudate is recorded. For the determination of cellular infiltration, the pleural cavity is rinsed with 3 ml of 0.1% EDTA in sterile saline, and the recovered wash is pooled with the exudate. Cell number is determined on a model ZBI Coulter counter. For determination of eicosanoid production, undiluted pleural exudate is microfuged and the supernatant is extracted with ethanol (8-10 times volume). Extracts are either stored at -20° C., or are evaporated to dryness under a stream of N2 and reconstituted in radioimmunoassay (RIA) buffer.
(§4) Inflammatory cells are expressed as 10^6 cells/ml, pleural exudate is expressed as ml of fluid, and the amount of eicosanoids in the pleural cavity is expressed as ng/ml of exudate. Mean ±S.E.M. is determined for each group. Percent inhibition (% I) of cell number, exudate volume and eicosanoid production is calculated for vehicle-treated control groups, and the responses in drug-treated rats are then expressed as the mean % I of the control. […] Exp. Ther., 96, 99-113 (1949).

LTB4 = assay: Reverse passive Arthus pleurisy assay, inflammatory mediator release: LTB4; type: in vivo, rat (male Lewis); conditions: for % Inhibition of LTB4 Synthesis: 25 mg/kg p.o., 3 hours before challenge
Experimental: as §1, §2
as §3, with “Drugs or vehicle (0.5% Tween-80) control are administered orally in a volume of 1 ml/100 g body weight at 1 hour prior to the anti-BSA.” left out
Eicosanoids are quantitated by RIA according to the procedure specified by the RIA kit manufacturer (Advanced Magnetics, Cambridge, Mass.). Briefly, 100 μl of ^3 H-labeled eicosanoid and 100 μl of specific antibody are sequentially added to 100 μl of extracted pleural exudate in BGG -phosphate buffer which contains 0.01 M phosphate, 0.1% bovine gamma globulin and 0.1% sodium azide at pH 7.0. Antibody-bound eicosanoid is separated from unbound eicosanoid by the addition of 750 μl of dextran (0.4%)-coated charcoal (0.4% Norit A) containing 0.1% sodium azide. The mixture is centrifuged at 2000 RPM at 5° C. for 15 minutes to pellet the charcoal and adsorbed unbound eicosanoid. Antibody-bound labeled eicosanoid is quantitated by counting in a liquid scintillation counter, and is correlated to concentration by a standard curve.
as §4

[2] = test system: 5-lipoxygenase in human whole blood; assay: Inhibition of 5-lipoxygenase in human whole blood (LTB4); type: cell-based
Experimental: The assay of this Example measures the ability of the compounds tested to inhibit 5-lipoxygenase in human whole blood.
as §2
Blood is obtained in 50-100 ml quantities from male donors. White blood cell counts and differentials are made. Two ml of blood are placed in a 15 ml polypropylene test tube. Compounds are solubilized in dimethylsulfoxide and diluted 1:10 in 10% bovine serum albumin in phosphate buffered saline, pH 7.4 resulting in a final dimethylsulfoxide concentration of 0.1% in the blood. Then, compounds are added to the blood in a shaking water bath at 37° C. for 10 minutes prior to the addition of 30 μM calcium ionophore (A23187; Sigma). After ionophore administration, whole blood samples are mixed and incubated for 20 minutes at […] in a shaking water bath. Incubation is terminated by placing samples in an ice bath and immediately adding ethylene glycol-bis-(β-aminoethyl ether)-N,N,N',N'-tetraacetic acid (10 mM). Samples are mixed and centrifuged at 1200×g for 15 minutes at 4° C. Preparation of samples for evaluation by RIA or ELISA is carried out by the following protocol. Plasma is removed from sample tubes, placed in 15 ml polypropylene test tubes containing 8 ml methanol, and then vortexed to precipitate protein. Samples are stored at -70° C. overnight. The next day, samples are centrifuged at 200×g for 15 minutes at 4° C. to pellet the precipitate. Samples are dried in a Savant speed vac concentrator, reconstituted to original volume with ice cold RIA or ELISA buffer, and stored at -70° C. until assayed. The assay for eicosanoids (LTB4, TxB2, and PGE2) is performed as described by the manufacturer of the [^3 H]-RIA kit or ELISA kit (LTB4 -Amersham, TxB2 and PGE2 - Caymen Chemical).
The total eicosanoid level in 2 ml of blood is calculated and reported as ng/10^6 neutrophils. […] Drug effects are expressed as percent change from control values.
Compounds tested in vitro are solubilized in dimethylsulfoxide and diluted 1:10 in 10% bovine serum albumin in phosphate buffer saline resulting in a final dimethylsulfoxide concentration of 0.1% in the blood.

[3] = biological target: T1, LTD4-induced contractions of isolated guinea pig trachea (Cavia porcellus, UniProt Q2NNR5); assay: In vitro isolated guinea pig trachea assay, LTD4 antagonist activity; design: species or system guinea pig (male Hartley); conditions: 1 × 10^-5 M
T1 construct: isolated guinea pig trachea; from tissue; host or cells: tracheal rings of male Hartley guinea pigs
T1 sequence (Q2NNR5 1-340): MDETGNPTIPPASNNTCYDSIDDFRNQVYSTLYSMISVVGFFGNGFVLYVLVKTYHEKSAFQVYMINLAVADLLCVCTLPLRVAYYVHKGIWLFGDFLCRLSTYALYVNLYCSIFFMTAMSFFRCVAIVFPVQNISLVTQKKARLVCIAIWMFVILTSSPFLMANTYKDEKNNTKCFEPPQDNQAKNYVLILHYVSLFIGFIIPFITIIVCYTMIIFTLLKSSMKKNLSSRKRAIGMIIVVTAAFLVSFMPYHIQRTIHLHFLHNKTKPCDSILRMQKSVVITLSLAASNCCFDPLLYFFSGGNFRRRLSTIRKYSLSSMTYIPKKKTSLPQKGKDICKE
Experimental: The LTD4 antagonist activity of the compounds of the invention is assessed in the in vitro isolated guinea pig trachea assay. This assay is carried out as follows: Male Hartley guinea pigs (350-400 g) are euthanized by a blow to the head, the neck is opened and the trachea removed. The trachea is maintained in aerated physiological salt solution, cleared of connective tissue and fat and cut into rings approximately 2 mm in width (usually containing two cartilaginous segments per ring). Two pieces of silk suture are then passed through the lumen of the tracheal ting and are tied around the cartilage, one on each side of the trachealis muscle. The tracheal ring is suspended between a glass hook and a force displacement transducer in a 10 ml organ bath for measurement of isometric tension. […] The tracheal rings are maintained at 2 g resting tension and equilibrated for 45 minutes (with frequent washing and readjustment of resting tension). The tracheal […] contracted by the addition of carbachol (3×10^-6 M), to determine tissue responsiveness and establish a reference contraction. On attainment of a stable level of contraction (approximately 30 minutes), the tissues are washed several times until baseline tension has been restored and the re-equilibrated for 30 minutes. The tissues are then incubated for 45 minutes with a test antiagonist (either 1×10^-6 M or 1×10^-5 M) or 10 μl of an appropriate solvent control (control, nontreated). One tissue in each group serves as the control. Twenty minutes prior to the construction of the LTD4 cumulative concentration-response curve, L-[…]×10^-2 M final bath concentration) is added to inhibit bioconversion of LTD4 to LTE4. Only one LTD4 concentration-response curve is constructed in each tissue. All responses to LTD4 in an individual tissue are measured as a percentage of the reference contraction of that tissue to carbachol. LTD4 antagonist activity is determined by comparison of the concentration response curves of LTD4 in the presence and absence of antagonist. Assessment of the relative rightward shift of the antagonist treated curve relative to the solvent (control) treated tissue is calculated as a concentration ratio (Eq. A) and used in subsequent calculations to derive an antagonist pKB value (Eqs. B and C). […] If a compound is found to be active and/or depress the maximal response to LTD4, then a range of concentrations of the test compound should be used generating multiple concentration ratios which would then be used to perform a Schild analysis, and determination of a pA2 value where appropriate.

With `C[C@@H]1C[C@H]2[C@@H]3CCC4=CC(=O)C=C[C@]4(C)[C@@]3(F)[C@@H](O)C[C@]2(C)[C@@]1(O)C(=O)CO` [Dexamethasone] the “ED30 Fluid Exudation” value ([1]; p.o., pleural inflammation, standard drugs) was 0.05 mg/kg.

For `CC(C)N(O)C(=O)Cc1ccc(-c2ccc(OCc3csc(-c4ccccc4)n3)cc2)cc1` [Example 20, N-Hydroxy-N-isopropyl-4'-[(2-phenylthiazol-4yl)methoxy][1,1'-biphenyl]-4-acetamide], the “% Inhibition of LTB4 Synthesis” value (LTB4) was 19%, the “% Inhibition of LTB4” value ([2]; at 25 μM) was 93% and the pKB [3] was < 5.2.

`CC(C(=O)N(C)O)c1ccc(-c2ccc(OCc3csc(-c4ccccc4)n3)cc2)cc1` (stereo not drawn) [Example 22, N-Hydroxy-N,α-dimethyl-4'-[(2-phenylthiazol-4-yl)methoxy][1,1'-biphenyl]-4-acetamide,sodium salt, hydrate] was tested, and the “% Inhibition of LTB4 Synthesis” value (LTB4; sodium salt, hydrate) was 37%, the “% Inhibition of LTB4” value ([2]; at 25 μM, sodium salt, hydrate) was 74% and the IC50 ([2]; sodium salt, hydrate) was 9 µM. For the same molecule, the Kb [3] was 5.01 µM.

For `CN(O)C(=O)Cc1ccc(-c2ccc(OCc3nc4ccccc4s3)cc2)c(F)c1` [Example 26], the “% Inhibition of LTB4 Synthesis” value (LTB4) was 7%, the IC50 [2] was 1.3 µM and the “% Inhibition of LTB4” value ([2]; at 25 μM) was 86%. For the same molecule, the Kb [3] was > 10 µM.

`CC(c1ccc(-c2ccc(OCc3nc4ccccc4s3)cc2)cc1)N(O)C(N)=O` (stereo not drawn) [Example 33, 1-{1-[4'-(Benzothiazol-2-ylmethoxy)biphenyl-4-yl]-ethyl}-1-hydroxy-urea] was tested, and the “% Inhibition of LTB4 Synthesis” value (LTB4) was 2%, the “% Inhibition of LTB4” value ([2]; at 10 μM) was 10% and the Kb [3] was > 10 µM.

For `COc1ccc2c(c1)c(CC(=O)O)c(C)n2C(=O)c1ccc(Cl)cc1` [Indomethacin], the “% Inh LTB4” value (LTB4; 4 mg/kg p.o., standard drugs) was 12%, the “% Inh Cellular Influx” value ([1]; 8 mg/kg p.o., standard drugs) was 19% and the ED30 ([1]; Rattus norvegicus, po, read-out: ED30 Fluid Exudation) was 2.5 mg/kg.
